For this test, the target named is T1, mutant B-RAF (Homo sapiens, UniProt P15056, V600E).
T1 construct: purchased Upstate (Charlottesville, Va.)
The test is described as follows: RAF biochemical assay (MEK-1 phosphorylation, anti-phospho MEK1/2 detection). Conditions: read-out: Mutant B-RAF IC50. In outline:
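Detection is by ELISA: after a 30 min room-temperature reaction, plate-captured GST-MEK-1 is probed with anti-phospho MEK1/2, then an AP-tagged secondary antibody with fluorescent Attophos read-out.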

T1 sequence (P15056 whole entry V600E): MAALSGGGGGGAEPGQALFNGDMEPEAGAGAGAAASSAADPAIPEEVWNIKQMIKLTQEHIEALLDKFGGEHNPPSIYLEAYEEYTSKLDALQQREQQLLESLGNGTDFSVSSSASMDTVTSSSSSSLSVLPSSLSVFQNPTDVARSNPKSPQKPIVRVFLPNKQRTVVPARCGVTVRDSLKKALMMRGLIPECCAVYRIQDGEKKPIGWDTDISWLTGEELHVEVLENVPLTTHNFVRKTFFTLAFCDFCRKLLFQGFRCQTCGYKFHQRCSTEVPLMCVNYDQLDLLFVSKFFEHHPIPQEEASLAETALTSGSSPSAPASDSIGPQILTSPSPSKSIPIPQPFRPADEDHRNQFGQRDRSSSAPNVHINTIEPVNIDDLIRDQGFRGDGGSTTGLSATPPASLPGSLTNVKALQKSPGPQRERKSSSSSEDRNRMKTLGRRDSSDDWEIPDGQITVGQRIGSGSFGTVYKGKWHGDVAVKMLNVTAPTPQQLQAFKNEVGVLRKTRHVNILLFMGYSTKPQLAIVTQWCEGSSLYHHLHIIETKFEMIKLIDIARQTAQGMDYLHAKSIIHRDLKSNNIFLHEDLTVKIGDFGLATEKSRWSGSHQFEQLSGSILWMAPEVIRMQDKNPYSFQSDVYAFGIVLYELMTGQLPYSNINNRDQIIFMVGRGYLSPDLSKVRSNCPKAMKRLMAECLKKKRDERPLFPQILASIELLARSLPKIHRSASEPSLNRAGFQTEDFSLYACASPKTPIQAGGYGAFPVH

For orientation: IC50 means the concentration that gives 50% inhibition. On to `O=C(NC1CCCC1)N1CCC(Nc2nccc(-c3c(-c4cccc(O)c4)nc4sccn34)n2)CC1` [Example 356, N-cyclopentyl-4-({4-[6-(3-hydroxyphenyl)imidazo[2,1-b][1,3]thiazol-5-yl]pyrimidin-2-yl}amino)piperidine-1-carboxamide], for which the concentration for half-maximal inhibition (IC50) turned out to be 2540 nM.

With `N#Cc1ccc(-c2nc3sccn3c2-c2ccnc(N[C@@H]3CCCN(S(=O)(=O)c4ccc(Cl)cc4)C3)n2)cc1` [Example 360, 4-{5-[2-({(3R)-1-[(4-chlorophenyl)sulfonyl]piperidin-3-yl}amino)pyrimidin-4-yl]imidazo[2,1-b][1,3]thiazol-6-yl}benzonitrile], the IC50 stood at 2470 nM.

For `CCOC(=O)c1ccc(-c2nc3sccn3c2-c2ccnc(N[C@@H]3CCCN(S(=O)(=O)c4ccc(Cl)cc4)C3)n2)cc1` [Example 361, ethyl 4-{5-[2-({(3R)-1-[(4-chlorophenyl)sulfonyl]piperidin-3-yl}amino)pyrimidin-4-yl]imidazo[2,1-b][1,3]thiazol-6-yl}benzoate], the concentration for half-maximal inhibition (IC50) worked out at 3250 nM.

In the case of `NC(=O)Oc1cccc(-c2nc3sccn3c2-c2ccnc(N[C@@H]3CCCN(S(=O)(=O)c4ccc(Cl)cc4)C3)n2)c1` [Example 364, 3-{5-[2-({(3R)-1-[(4-chlorophenyl)sulfonyl]piperidin-3-yl}amino)pyrimidin-4-yl]imidazo[2,1-b][1,3]thiazol-6-yl}phenyl carbamate], the IC50 was 7 nM.

Consider `Cc1nc(-c2cccc(-c3nc4sccn4c3-c3ccnc(N[C@@H]4CCCNC4)n3)c2)no1` [Example 365, 4-{6-[3-(5-methyl-1,2,4-oxadia-zol-3-yl)phenyl]imidazo[2,1-b][1,3]thiazol-5-yl}-N-[(3R)-piperidin-3-yl]pyrimidin-2-amine], for which the IC50 stood at 30 nM.

For the compound `Cn1cnc(S(=O)(=O)N2CCC[C@@H](Nc3nccc(-c4c(-c5cccc(O)c5)nc5sccn45)n3)C2)c1` [Example 366, 3-{5-[2-({(3R)-1-[(1-methyl-1H-imidazol-4-yl)sulfonyl]piperidin-3-yl}amino)pyrimidin-4-yl]imidazo[2,1-b][1,3]thiazol-6-yl}phenol], the concentration for half-maximal inhibition (IC50) was 11 nM.

For `O=S(=O)(c1ccsc1)N1CCC[C@@H](Nc2nccc(-c3c(-c4cccc(O)c4)nc4sccn34)n2)C1` [Example 367, 3-[5-(2-{[(3R)-1-(3-thienylsulfonyl)piperidin-3-yl]amino}pyrimidin-4-yl)imidazo[2,1-b][1,3]thiazol-6-yl]phenol], the concentration for half-maximal inhibition (IC50) amounted to 3 nM.

`CC(C)S(=O)(=O)N1CCC[C@@H](Nc2nccc(-c3c(-c4cccc(O)c4)nc4sccn34)n2)C1` [Example 368, 3-[5-(2-{[(3R)-1-(isopropylsulfonyl)piperidin-3-yl]amino}pyrimidin-4-yl)imidazo[2,1-b][1,3]thiazol-6-yl]phenol]: the concentration for half-maximal inhibition (IC50) is more than 3000 nM.

As to `O=S(=O)(Cc1ccccc1)N1CCC[C@@H](Nc2nccc(-c3c(-c4cccc(O)c4)nc4sccn34)n2)C1` [Example 369, 3-[5-(2-{[(3R)-1-(benzylsulfonyl)piperidin-3-yl]amino}pyrimidin-4-yl)imidazo[2,1-b][1,3]thiazol-6-yl]phenol], the IC50 was more than 3000 nM.

With `CCCS(=O)(=O)N1CCC[C@@H](Nc2nccc(-c3c(-c4cccc(O)c4)nc4sccn34)n2)C1` [Example 370, 3-[5-(2-{[(3R)-1-(propylsulfonyl)piperidin-3-yl]amino}pyrimidin-4-yl)imidazo[2,1-b][1,3]thiazol-6-yl]phenol], the IC50 was found to be 1200 nM.

With `O=S(=O)(c1cccs1)N1CCC[C@@H](Nc2nccc(-c3c(-c4cccc(O)c4)nc4sccn34)n2)C1` [Example 371, 3-[5-(2-{[(3R)-1-(2-thienylsulfonyl)piperidin-3-yl]amino}pyrimidin-4-yl)imidazo[2,1-b][1,3]thiazol-6-yl]phenol], the concentration for half-maximal inhibition (IC50) turned out to be 3 nM.

For `O=S(=O)(c1ccccc1)N1CCC[C@@H](Nc2nccc(-c3c(-c4cccc(O)c4)nc4sccn34)n2)C1` [Example 372, 3-[5-(2-{[(3R)-1-(phenylsulfonyl)piperidin-3-yl]amino}pyrimidin-4-yl)imidazo[2,1-b][1,3]thiazol-6-yl]phenol], the IC50 stood at 3 nM.

As for `CCS(=O)(=O)N1CCC[C@@H](Nc2nccc(-c3c(-c4cccc(O)c4)nc4sccn34)n2)C1` [Example 373, 3-[5-(2-{[(3R)-1-(ethylsulfonyl)piperidin-3-yl]amino}pyrimidin-4-yl)imidazo[2,1-b][1,3]thiazol-6-yl]phenol], the IC50 was more than 3000 nM.

`CC(=O)Nc1ccc(S(=O)(=O)N2CCC[C@@H](Nc3nccc(-c4c(-c5cccc(O)c5)nc5sccn45)n3)C2)cc1` [Example 374, N-(4-{[(3R)-3-({4-[6-(3-hydroxyphenyl)imidazo[2,1-b][1,3]thiazol-5-yl]pyrimidin-2-yl}amino)piperidin-1-yl]sulfonyl}phenyl)acetamide]: the half-inhibitory concentration (IC50) was determined as 1 nM.

Turning to `O=S(=O)(CC(F)(F)F)N1CCC[C@@H](Nc2nccc(-c3c(-c4cccc(O)c4)nc4sccn34)n2)C1` [Example 375, 3-{5-[2-({(3R)-1-[(2,2,2-trifluoroethyl)sulfonyl]piperidin-3-yl}amino)pyrimidin-4-yl]imidazo[2,1-b][1,3]thiazol-6-yl}phenol], the IC50 is more than 3000 nM.

Regarding `Cn1ccc(S(=O)(=O)N2CCC[C@@H](Nc3nccc(-c4c(-c5cccc(O)c5)nc5sccn45)n3)C2)n1` [Example 376, 3-{5-[2-({(3R)-1-[(1-methyl-1H-pyrazol-3-yl)sulfonyl]piperidin-3-yl}amino)pyrimidin-4-yl]imidazo[2,1-b][1,3]thiazol-6-yl}phenol], the 50% inhibitory concentration (IC50) was determined as 1 nM.

`NS(=O)(=O)Oc1cccc(-c2nc3sccn3c2-c2ccnc(N[C@@H]3CCCN(S(=O)(=O)c4ccc(Cl)cc4)C3)n2)c1` [Example 377, 3-{5-[2-({(3R)-1-{(4-chlorophenyl)sulfonyl]piperidin-3-yl}amino)pyrimidin-4-yl]imidazo[2,1-b][1,3]thiazol-6-yl}phenyl sulfamate]: the IC50 is 85 nM.

`O=S(=O)(c1ccc(Cl)cc1)N1CCC[C@@H](Nc2nccc(-c3c(-c4ccc(CO)cc4)nc4sccn34)n2)C1` [Example 378, (4-{5-[2-({(3R)-1-[(4-chlorophenyl)sulfonyl]piperidin-3-yl}amino)pyrimidin-4-yl]imidazo[2,1-b][1,3]thiazol-6-yl}phenyl)methanol]: the half-maximal inhibitory concentration (IC50) came to 2260 nM.

For `NC(=O)c1ccc(-c2nc3sccn3c2-c2ccnc(N[C@@H]3CCCN(S(=O)(=O)c4ccc(Cl)cc4)C3)n2)cc1` [Example 379, 4-{5-[2-({(3R)-1-[(4-chlorophenyl)sulfonyl]piperidin-3-yl}amino)pyrimidin-4-yl]imidazo[2,1-b][1,3]thiazol-6-yl}benzamide], the IC50 is 2670 nM.

Take `NS(=O)(=O)Oc1cccc(-c2nc3occn3c2-c2ccnc(N[C@@H]3CCCN(S(=O)(=O)c4ccc(Cl)cc4)C3)n2)c1` [Example 380, 3-{5-[2-({(3R)-1-[(4-chlorophenyl)sulfonyl]piperidin-3-yl}amino)pyrimidin-4-yl]imidazo[2,1-b][1,3]oxazol-6-yl}phenyl sulfamate]: the IC50 is 1590 nM.

For the compound `O=S(=O)(c1nnc[nH]1)N1CCC[C@@H](Nc2nccc(-c3c(-c4cccc(O)c4)nc4sccn34)n2)C1` [Example 381, 3-[5-(2-{[(3R)-1-(4H-1,2,4-tri-azol-3-ylsulfonyl)piperidin-3-yl]amino}pyrimidin-4-yl)imidazo[2,1-b][1,3]thiazol-6-yl]phenol], the concentration for half-maximal inhibition (IC50) stood at 15 nM.

Regarding `O=C(O)c1cccc(-c2nc3sccn3c2-c2ccnc(N[C@@H]3CCCN(S(=O)(=O)c4ccc(Cl)cc4)C3)n2)c1` [Example 382, 3-{5-[2-({(3R)-1-[(4-chlorophenyl)sulfonyl]piperidin-3-yl}amino)pyrimidin-4-yl]imidazo[2,1-b][1,3]thiazol-6-yl}benzoic acid], the IC50 stood at 1190 nM.

On to `CC(=O)c1cccc(-c2nc3sccn3c2-c2ccnc(N[C@@H]3CCCN(S(=O)(=O)c4ccc(Cl)cc4)C3)n2)c1` [Example 384, 1-(3-{5-[2-({(3R)-1-[(4-chlorophenyl)sulfonyl]piperidin-3-yl)amino)pyrimidin-4-yl]imidazo[2,1-b][1,3]thiazol-6-yl}phenyl)ethanone], for which the half-maximal inhibitory concentration (IC50) worked out at 1300 nM.

Take `O=Cc1ccc(-c2nc3sccn3c2-c2ccnc(N[C@@H]3CCCN(S(=O)(=O)c4ccc(Cl)cc4)C3)n2)cc1` [Example 385, 4-{5-[2-({(3R)-1-[(4-chlorophenyl)sulfonyl]piperidin-3-yl}amino)pyrimidin-4-yl]imidazo[2,1-b][1,3]thiazol-6-yl}benzaldehyde]: the IC50 was 876 nM.

For `NC(=O)Oc1cccc(-c2nc3occn3c2-c2ccnc(N[C@@H]3CCCN(S(=O)(=O)c4ccc(Cl)cc4)C3)n2)c1` [Example 386, 3-{5-[2-({(3R)-1-[(4-chlorophenyl)sulfonyl]piperidin-3-yl}amino)pyrimidin-4-yl]imidazo[2,1-b][1,3]oxazol-6-yl}phenyl carbamate], the IC50 turned out to be 109 nM.

In the case of `CCCOC(=O)N1CCC(Nc2nccc(-c3c(-c4cccc(O)c4)nc4sccn34)n2)CC1` [Example 387, propyl 4-({4-[6-(3-hydroxyphenyl)imidazo[2,1-b][1,3]thiazol-5-yl]pyrimidin-2-yl}amino)piperidine-1-carboxylate], the half-maximal inhibitory concentration (IC50) is more than 3000 nM.

As to `O=S(=O)(c1cccs1)N1CCC[C@@H](Nc2nccc(-c3c(-c4cccc(O)c4)nc4occn34)n2)C1` [Example 388, 3-[5-(2-{[(3R)-1-(2-thienylsulfonyl)piperidin-3-yl]amino}pyrimidin-4-yl)imidazo[2,1-b][1,3]oxazol-6-yl]phenol], the IC50 was found to be 9 nM.

With `C/C(=N\O)c1cccc(-c2nc3sccn3c2-c2ccnc(N[C@@H]3CCCN(S(=O)(=O)c4ccc(Cl)cc4)C3)n2)c1` [Example 389, (1E)-1-(3-{5-[2-({(3R)-1-[(4-chlorophenyl)sulfonyl]piperidin-3-yl}amino)pyrimidin-4-yl]imidazo[2,1-b][1,3]thiazol-6-yl}phenyl)ethanone oxime], the half-inhibitory concentration (IC50) is 34 nM.

Source of the values: patent US7501430B2 (ArQule, Inc., priority 2006, dated 2009).
